Patent publication US20120083476A1, “HETEROARYL-SUBSTITUTED SPIROCYCLIC DIAMINE UREA MODULATORS OF FATTY ACID AMIDE HYDROLASE” (Janssen Pharmaceutica NV, priority 2009, published 2012)
Counter-ions that a name gives are not always drawn. Like-named read-outs stand apart in the source and are kept apart here.

What was measured:
FAAH = biological target: T1, FAAH (Homo sapiens, UniProt O00519); assay: Assay Method 1: human FAAH assay (3H-anandamide hydrolysis in cell homogenate); format: biochemical; set-up: expressed in transfected cells; host or cells: SK-N-MC cells stably transfected with human FAAH cDNA (G418 selection); alternatively T84 cell pellets
T1 sequence (O00519 1-579): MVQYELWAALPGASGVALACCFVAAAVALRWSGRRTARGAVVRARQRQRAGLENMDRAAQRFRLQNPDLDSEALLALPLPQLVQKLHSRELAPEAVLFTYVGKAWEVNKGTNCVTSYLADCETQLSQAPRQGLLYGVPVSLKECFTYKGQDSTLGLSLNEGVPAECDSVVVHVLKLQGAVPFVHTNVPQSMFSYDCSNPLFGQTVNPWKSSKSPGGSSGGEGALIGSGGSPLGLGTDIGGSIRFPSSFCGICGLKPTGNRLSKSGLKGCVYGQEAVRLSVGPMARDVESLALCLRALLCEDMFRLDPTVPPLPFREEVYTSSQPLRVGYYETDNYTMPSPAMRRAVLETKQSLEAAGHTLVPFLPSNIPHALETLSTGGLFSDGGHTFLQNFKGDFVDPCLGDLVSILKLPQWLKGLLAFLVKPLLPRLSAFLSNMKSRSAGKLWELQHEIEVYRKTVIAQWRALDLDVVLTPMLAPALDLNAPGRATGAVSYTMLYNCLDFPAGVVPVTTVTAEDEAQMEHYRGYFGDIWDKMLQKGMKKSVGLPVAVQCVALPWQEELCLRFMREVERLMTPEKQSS
Outline: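 Homogenates of T84 cells or SK-N-MC cells stably transfected with human FAAH, in pH 9 Tris/EDTA buffer with 0.02% Triton X-100. Incubated 1 h at rt with compound and 80 nM (final) [3H-ethanolamine]-anandamide. Released 3H-ethanolamine separated on charcoal filters and counted by scintillation.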

Rat FAAH = biological target: T2, Rat FAAH (Rattus norvegicus, UniProt P97612); assay: Assay Method 2: rat FAAH assay (3H-anandamide hydrolysis in cell homogenate); format: biochemical
T2 construct: expressed in transfected cells; host or cells: SK-N-MC cells stably transfected with rat FAAH cDNA (G418 selection)
T2 sequence (P97612 1-579): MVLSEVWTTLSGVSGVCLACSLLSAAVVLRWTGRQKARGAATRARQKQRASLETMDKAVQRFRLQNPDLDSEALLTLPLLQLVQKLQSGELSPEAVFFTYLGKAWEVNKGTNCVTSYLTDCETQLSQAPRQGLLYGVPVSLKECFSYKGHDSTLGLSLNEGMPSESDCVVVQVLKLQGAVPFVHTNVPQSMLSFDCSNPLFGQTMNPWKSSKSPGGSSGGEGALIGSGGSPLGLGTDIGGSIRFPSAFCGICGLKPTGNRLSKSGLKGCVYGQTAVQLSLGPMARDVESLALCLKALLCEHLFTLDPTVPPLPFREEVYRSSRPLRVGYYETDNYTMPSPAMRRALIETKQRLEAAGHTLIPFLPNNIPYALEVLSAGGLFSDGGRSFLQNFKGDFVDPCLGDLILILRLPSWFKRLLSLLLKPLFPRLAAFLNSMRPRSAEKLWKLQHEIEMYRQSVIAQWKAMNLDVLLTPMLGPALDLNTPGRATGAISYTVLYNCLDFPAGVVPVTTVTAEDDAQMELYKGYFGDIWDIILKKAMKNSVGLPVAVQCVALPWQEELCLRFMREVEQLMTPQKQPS
Outline: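 Homogenates of T84 cells or SK-N-MC cells stably transfected with rat FAAH, in pH 9 Tris/EDTA/glycerol/Triton buffer, incubated 1 h at room temperature with 3H-anandamide. Released labeled ethanolamine separated from substrate on activated charcoal and counted by scintillation; values averaged over runs.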

SMILES	IC50 (FAAH; read-out: Assay 1 IC50) [nM]	IC50 (Rat FAAH; read-out: Assay 2 IC50) [nM]	IC50 (FAAH) [nM]	IC50 (Rat FAAH) [nM]
O=C(Nc1cnccc1Cl)N1CCCC2(CN(Cc3cccc(Oc4ccc(Cl)cc4)c3)C2)C1 [Example 30, 2-(3-(4-chlorophenoxy)benzyl)-N-(4-chloropyridin-3-yl)-2,6-diazaspiro[3.5]nonane-6-carboxamide]	1600	120		
O=C(Nc1cnc2ccccc2c1)N1CCC2(CCN(Cc3cccc(Oc4ccc(Cl)cc4)c3)CC2)CC1 [Example 33, 9-(3-(4-chlorophenoxy)benzyl)-N-(quinolin-3-yl)-3,9-diazaspiro[5.5]undecane-3-carboxamide]	70	10		
O=C(Nc1cnc2ccccn12)N1CCCC2(CN(Cc3cccc(Oc4ccc(Cl)cc4)c3)C2)C1 [Example 34, 2-(3-(4-chlorophenoxy)benzyl)-N-(imidazo[1,2-a]pyridin-3-yl)-2,6-diazaspiro[3.5]nonane-6-carboxamide]	> 10000	120		
O=C(Nc1cccnc1)N1CC2(CN(Cc3cccc(Oc4ccc(Cl)cc4)c3)C2)C1 [Example 35, 6-(3-(4-chlorophenoxy)benzyl)-N-(pyridin-3-yl)-2,6-diazaspiro[3.3]heptane-2-carboxamide]	30	700		
O=C(Nc1cnccc1Cl)N1CC2(CN(Cc3cccc(Oc4ccc(Cl)cc4)c3)C2)C1 [Example 36, 6-(3-(4-chlorophenoxy)benzyl)-N-(4-chloropyridin-3-yl)-2,6-diazaspiro[3.3]heptane-2-carboxamide]	10	30		
O=C(Nc1cccnc1)N1CC2(CCN(Cc3cccc(Oc4ccc(Cl)cc4)c3)CC2)C1 [Example 37, 7-[3-(4-Chloro-phenoxy)-benzyl]-2,7-diaza-spiro[3.5]nonane-2-carboxylic acid pyridin-3-ylamide]	90	60		
O=C(Nc1noc2ccccc12)N1CC2(CCN(Cc3cccc(Oc4ccc(Cl)cc4)c3)CC2)C1 [Example 38, 7-[3-(4-Chloro-phenoxy)-benzyl]-2,7-diaza-spiro[3.5]nonane-2-carboxylic acid benzo[d]isoxazol-3-ylamide]	820	20		
O=C(Nc1ccc(-n2nccn2)nc1)N1CC2(CCN(Cc3cccc(Oc4ccc(Cl)cc4)c3)CC2)C1 [Example 39, 7-[3-(4-Chloro-phenoxy)-benzyl]-2,7-diaza-spiro[3.5]nonane-2-carboxylic acid (6-[1,2,3]triazol-2-yl-pyridin-3-yl)-amide]	20	20		
O=C(Nc1cnc2[nH]ccc2c1)N1CC2(CCN(Cc3cccc(Oc4ccc(Cl)cc4)c3)CC2)C1 [Example 40, 7-[3-(4-Chloro-phenoxy)-benzyl]-2,7-diaza-spiro[3.5]nonane-2-carboxylic acid (1H-pyrrolo[2,3-b]pyridin-5-yl)-amide, trifluoroacetic acid salt]	60	40		
O=C(Nc1ccc(-n2nccn2)cc1)N1CC2(CCN(Cc3cccc(Oc4ccc(Cl)cc4)c3)CC2)C1 [Example 41, 7-[3-(4-Chloro-phenoxy)-benzyl]-2,7-diaza-spiro[3.5]nonane-2-carboxylic acid (4-[1,2,3]triazol-2-yl-phenyl)-amide, trifluoroacetic acid salt]	20	80		
O=C(Nc1ncccn1)N1CC2(CCN(Cc3cccc(Oc4ccc(Cl)cc4)c3)CC2)C1 [Example 42, 7-[3-(4-Chloro-phenoxy)-benzyl]-2,7-diaza-spiro[3.5]nonane-2-carboxylic acid pyrimidin-2-ylamide, trifluoroacetic acid salt]	> 10000	1000		
O=C(Nc1ccncn1)N1CC2(CCN(Cc3cccc(Oc4ccc(Cl)cc4)c3)CC2)C1 [Example 43, 7-[3-(4-Chloro-phenoxy)-benzyl]-2,7-diaza-spiro[3.5]nonane-2-carboxylic acid pyrimidin-4-ylamide, trifluoroacetic acid salt]			5660	5440
O=C(Nc1cccnn1)N1CC2(CCN(Cc3cccc(Oc4ccc(Cl)cc4)c3)CC2)C1 [Example 44, 7-[3-(4-Chloro-phenoxy)-benzyl]-2,7-diaza-spiro[3.5]nonane-2-carboxylic acid pyridazin-3-ylamide, trifluoroacetic acid salt]	430			260
O=C(Nc1ccc(-n2cccn2)nc1)N1CC2(CCN(Cc3cccc(Oc4ccc(Cl)cc4)c3)CC2)C1 [Example 45, 7-[3-(4-Chloro-phenoxy)-benzyl]-2,7-diaza-spiro[3.5]nonane-2-carboxylic acid (6-pyrazol-1-yl-pyridin-3-yl)-amide, trifluoroacetic acid salt]	40	100		
O=C(Nc1ccc(-n2cncn2)nc1)N1CC2(CCN(Cc3cccc(Oc4ccc(Cl)cc4)c3)CC2)C1 [Example 46, 7-[3-(4-Chloro-phenoxy)-benzyl]-2,7-diaza-spiro[3.5]nonane-2-carboxylic acid (6-[1,2,4]triazol-1-yl-pyridin-3-yl)-amide, trifluoroacetic acid salt]	1000	1000		
O=C(Nc1ccc(Cl)nc1)N1CC2(CCN(Cc3cccc(Oc4ccc(Cl)cc4)c3)CC2)C1 [Example 48, 7-[3-(4-Chloro-phenoxy)-benzyl]-2,7-diaza-spiro[3.5]nonane-2-carboxylic acid (6-chloro-pyridin-3-yl)-amide, trifluoroacetic acid salt]	1500	8000		
COc1ccc(NC(=O)N2CC3(CCN(Cc4cccc(Oc5ccc(Cl)cc5)c4)CC3)C2)cn1 [Example 49, 7-[3-(4-Chloro-phenoxy)-benzyl]-2,7-diaza-spiro[3.5]nonane-2-carboxylic acid (6-methoxy-pyridin-3-yl)-amide, trifluoroacetic acid salt]	1800	8000		
N#Cc1ccc(NC(=O)N2CC3(CCN(Cc4cccc(Oc5ccc(Cl)cc5)c4)CC3)C2)cn1 [Example 50, 7-[3-(4-Chloro-phenoxy)-benzyl]-2,7-diaza-spiro[3.5]nonane-2-carboxylic acid (6-cyano-pyridin-3-yl)-amide, trifluoroacetic acid salt]	820	8000		
O=C(Nc1cccc2nonc12)N1CC2(CCN(Cc3cccc(Oc4ccc(Cl)cc4)c3)CC2)C1 [Example 52, 7-[3-(4-Chloro-phenoxy)-benzyl]-2,7-diaza-spiro[3.5]nonane-2-carboxylic acid benzo[1,2,5]oxadiazol-4-ylamide, trifluoroacetic acid salt]	660	670		
O=C(Nc1cnccc1Cl)N1CC2(CCN(Cc3cccc(Oc4ccc(Cl)cc4)c3)CC2)C1 [Example 53, 7-[3-(4-Chloro-phenoxy)-benzyl]-2,7-diaza-spiro[3.5]nonane-2-carboxylic acid (4-chloro-pyridin-3-yl)-amide, trifluoroacetic acid salt]	10	10		
O=C(Nc1cccnc1Cl)N1CC2(CCN(Cc3cccc(Oc4ccc(Cl)cc4)c3)CC2)C1 [Example 54, 7-[3-(4-Chloro-phenoxy)-benzyl]-2,7-diaza-spiro[3.5]nonane-2-carboxylic acid (2-chloro-pyridin-3-yl)-amide, trifluoroacetic acid salt]	170	190		
O=C(Nc1ccc(N2CCOCC2)nc1)N1CC2(CCN(Cc3cccc(Oc4ccc(Cl)cc4)c3)CC2)C1 [Example 55, 7-[3-(4-Chloro-phenoxy)-benzyl]-2,7-diaza-spiro[3.5]nonane-2-carboxylic acid (6-morpholin-4-yl-pyridin-3-yl)-amide, trifluoroacetic acid salt]	6930	6930		
